# Literature values as cited in US4195171A, “Derivatives of an antibiotic XK-62-2 and process for the production thereof” (Abbott Laboratories, priority 1975, dated 1980).
# Settings: cited from earlier work
smiles,measurement,setting,value
CNCC1CCC(N)C(OC2C(N)CC(N)C(OC3OCC(C)(O)C(NC)C3O)C2O)O1 (centres unmarked) [XK-62-2],solubility in acetone,acetone,slightly soluble
same,solubility in benzene,benzene,insoluble
same,solubility in chloroform,chloroform,insoluble
same,solubility in ethanol,ethanol,slightly soluble
same,solubility in ethyl acetate,ethyl acetate,insoluble
same,solubility in methanol,methanol,freely soluble
same,solubility in n-hexane,n-hexane,insoluble
same,solubility in water,water,freely soluble
